Test results published in patent publication US20210147371A1, “OXADIAZOLINE DERIVATIVES” (Bayer Aktiengesellschaft, priority 2018, published 2021).
Where two headings read alike, the source gives them in different places. Blank lines part the entries; values can stand above or below the compound they belong to.

Assay: Log P by HPLC on reversed phase columns (EEC directive 79/831 Annex V.A8)
Assay type: physicochemical
Method: Measurement of Log P values was performed according to EEC directive 79/831 Annex V.A8 by HPLC (High Performance Liquid Chromatography) on reversed phase columns with the following methods: • [^a]
If more than one Log P value is available within the same method, all the values are given and separated by “+”.
Calibration was done with straight-chain alkan2-ones (with 3 to 16 carbon atoms) with known Log P values (measurement of Log P values using retention times with linear interpolation between successive alkanones). Lambda-max-values were determined using UV-spectra from 200 nm to 400 nm and the peak values of the chromatographic signals.

[1] = method [a]: LC-UV, acidic range, 0.1% formic acid in water and acetonitrile, compounds of formula (I), read-out: Log P
[2] = reversed phase HPLC columns, method [a]: LC-UV, acidic range, 0.1% formic acid in water and acetonitrile, compounds of formula (I), read-out: Log P

Compound: CC(=O)N1C(c2ccc(OC(=O)N(C)C)cc2)=NOC1C(F)(F)F (stereo not shown) [Compound I-16, 4-[Acetyl-5-(trifluoromethyl)-4,5-dihydro-1,2,4-oxadiazol-3-yl]phenyl dimethylcarbamate]
chromatographic logP [1]: 2.62

Compound: FC(F)(F)C1NC(c2ccc3c(cnn3Cc3ccccc3)c2)=NO1 (stereo not shown) [Compound I-23, 1-Benzyl-5-[(trifluoromethyl)-4,5-dihydro-1,2,4-oxadiazol-3-yl]-2H-indazole]
chromatographic logP [2]: 3

Compound: CN(C)C(=O)Oc1ccc(C2=NOC(C(F)(F)F)N2)cc1 (stereo not shown) [Compound I-03, 4-[5-(Trifluoromethyl)-4,5-dihydro-1,2,4-oxadiazol-3-yl]phenyl dimethylcarbamate]
chromatographic logP [1]: 2.19

Compound: CN(C)C(=O)Oc1ccc(-c2noc(C(F)(F)F)n2)cc1 [IV-05, 4-[5-(Trifluoromethyl)-1,2,4-oxadiazol-3-yl]phenyl dimethylcarbamate]
chromatographic logP (method [a]: LC-UV, acidic range, 0.1% formic acid in water and acetonitrile, intermediates of formula (IV), read-out: LogP): 3.37

Compound: FC(F)(F)C1NC(c2ccc3nn(Cc4ccccc4)cc3c2)=NO1 (stereo not shown) [Compound I-24, 2-Benzyl-5-[(trifluoromethyl)-4,5-dihydro-1,2,4-oxadiazol-3-yl]-2H-indazole]
chromatographic logP [2]: 2.69

Continued, values first:

chromatographic logP (reversed phase HPLC columns, method [a]: LC-UV, acidic range, 0.1% formic acid in water and acetonitrile, intermediates of formula (IV), read-out: LogP): 4.03
Compound: FC(F)(F)c1nc(-c2ccc3nn(Cc4ccccc4)cc3c2)no1 [IV-15, 2-Benzyl-5-[5-(trifluoromethyl)-1,2,4-oxadiazol-3-yl]-1H-indazole]

chromatographic logP: 4.39
Compound: FC(F)(F)c1nc(-c2ccc3c(cnn3Cc3ccccc3)c2)no1 [IV-17, 1-Benzyl-5-[5-(trifluoromethyl)-1,2,4-oxadiazol-3-yl]-1H-indazole]
